We go through four compounds from patent US10071996B2, “Optical isomer of 1,4-benzothiazepine-1-oxide derivative, and pharmaceutical composition prepared using same” (AETAS PHARMA CO., LTD., priority 2014, dated 2018).

Molecules are shown by their SMILES.

One series in a line: Solubility in solvents. Type of series: physicochemical.
Series [1] can be described thus: Stability of the compound at room temperature. Type of series: physicochemical.
The subject of a further series is anaesthetized rat. Put plainly: Influence on circulatory system (heart rate, blood pressure, max dP/dt, min dP/dt) in anaesthetized rat, continuous intravenous administration. Type of series: in vivo. Particulars: hydrochloride salt, i.v. continuous 0.1 mg/kg/minute for 20 minutes, difference vs 0 minute value; for change in the heart rate: FIG. 1; for change in blood pressure: FIG. 2; for change in left ventricular contraction function (max dP/dt): FIG. 3; for change in left ventricular relaxation function (min dP/dt): FIG. 4. How it is done: Measurement of heart rate, blood pressure, left ventricular contraction function (max dP/dt), and left ventricular relaxation function (min dP/dt)
Test method: In the present test, by using an anaesthetized rat, the influence of the hydrochloride salt of the first optical isomer component (A) and the second optical isomer component (B), each administered intravenously and continuously, on a circulatory system was determined. The test was performed with n=5 for each group. Each of the first component (A) or the second component (B) was continuously administered for 20 minutes at 0.1 mg/kg/minute, and then the measurement of heart rate, blood pressure, max dP/dt, and min dP/dt was performed. Each parameter was measured at 0 minute, 1 minute, 5 minutes, 10 minutes, 15 minutes, 20 minutes, 25 minutes, 30 minutes, 35 minutes, and 40 minutes after the administration, and the result was expressed in terms of a difference compared to the 0 minute value (previous value (i.e., control value)). The measurement value was expressed in terms of mean value±SD.
For the data of FIG. 1 to FIG. 4, determination of a significant difference was carried out by using t test.

The subject of series [2] is anaesthetized beagle dog. Put plainly: Influence on ventricular effective refractory period in anaesthetized beagle dog. It counts as in vivo. Particulars: for ventricular effective refractory period (% change rate vs control value 100%): anaesthetized beagle dog, i.v. rapid 5 minutes at 1 mg/kg/minute, measured immediately after administration, pacing interval 250 msec, FIG. 6; for extension of ventricular effective refractory period: beagle dog. Here is the method:
Influence on Ventricular Effective Refractory Period Test method: In the present test, by using an anaesthetized beagle dog, the influence of the first optical isomer component (A) and the second optical isomer component (B), each administered intravenously and rapidly, on ventricular effective refractory period was determined. The test was performed with n=5 for each group. The test compound was rapidly administered for 5 minutes at 1 mg/kg/minute. Measurement of ventricular effective refractory period was carried out immediately after the termination of the administration. The pacing interval was 250 msec. The measurement value was expressed in terms of mean value±SD. Test results: The test results are expressed in terms of % change rate when the previous value (i.e., control value) of ventricular effective refractory period is set at 100%.

Series [3] relates to anaesthetized beagle dog. Put plainly: Influence on atrial effective refractory period in anaesthetized beagle dog. It counts as in vivo. Particulars: FIG. 5; for atrial effective refractory period (% change rate vs control value 100%): hydrochloride salt, i.v. 10 minutes at 0.1 mg/kg/minute then 20 minutes at 0.05 mg/kg/minute, pacing interval 250 msec. Here is the method: Influence on Atrial Effective Refractory Period
Test method: In the present test, by using an anaesthetized beagle dog, the influence of hydrochloride salt of the first optical isomer component (A) and the second optical isomer component (B), each administered intravenously and continuously, on atrial effective refractory period was determined. The test was performed with n=5 for each group. The test compound was continuously administered for 10 minutes at 0.1 mg/kg/minute and then for 20 minutes at 0.05 mg/kg/minute. Measurement of atrial effective refractory period till 270 minutes after the termination of the administration was carried out. The pacing interval was 250 msec. The measurement value was expressed in terms of mean value±SD.
Test results: The test results are expressed in terms of % change rate when the previous value (i.e., control value) of atrial effective refractory period is set at 100%.
For the data of FIG. 5, determination of a significant difference was carried out by using t test.

Take `COc1ccc2c(c1)CN(C(=O)CCN1CCC(Cc3ccccc3)CC1)CC[S+]2[O-]` (racemic) [[Ia], 4-[3-(4-benzylpiperidin-1-yl)propionyl]-7-methoxy-2,3,4,5-tetrahydro-1,4-benzothiazepine-1-oxide]: the skin irritating property entry in “Skin irritating property” was “has a skin irritating property”. In addition, the “solubility in ethanol and dimethyl sulfoxide (DMSO)” value in “Solubility in solvents” (free form, amorphous solid) was “easily dissolved”. The “stability to oxygen, humidity, acid, and alkali” value in series [1] is recorded as “stable”.
Take `COc1ccc2c(c1)CN(C(=O)CCN1CCC(Cc3ccccc3)CC1)CC[S+]2[O-]` (stereo not shown) [oxalate of the compound [Ia], 4-[3-(4-benzylpiperidin-1-yl)propionyl]-7-methoxy-2,3,4,5-tetrahydro-1,4-benzothiazepine-1-oxide]: in the series “Solubility in solvents” (oxalate, crystal), the “solubility in water, ethanol, and dimethyl sulfoxide” value is listed as “soluble”.
As to `COc1ccc2c(c1)CN(C(=O)CCN1CCC(Cc3ccccc3)CC1)CC[S+]2[O-]` (single isomer, unassigned) [first optical isomer component (A), 4-[3-(4-benzylpiperidin-1-yl)propionyl]-7-methoxy-2,3,4,5-tetrahydro-1,4-benzothiazepine-1-oxide], in the series on anaesthetized rat, the “change in the heart rate” value was “mildly increased”, the “change in blood pressure” value is given as “mildly increased”, the “change in left ventricular contraction function (max dP/dt)” value was “enhanced” and the “change in left ventricular relaxation function (min dP/dt)” value is reported as “enhanced”. Besides, the “ventricular effective refractory period (% change rate vs control value 100%)” value in the series on anaesthetized beagle dog [2] (1 mg/kg) is “not extended”. Besides, the “extension of ventricular effective refractory period” value with anaesthetized beagle dog [2] (amount of up to 8 mg/Kg) was “does not show any extension”. The “atrial effective refractory period (% change rate vs control value 100%)” value with anaesthetized beagle dog [3] is recorded as “extended”. The “atrial effective refractory period extension compared with the other enantiomer” value in the series with anaesthetized beagle dog [3] (same regimen) is reported as “longer extension”.
Turning to `COc1ccc2c(c1)CN(C(=O)CCN1CCC(Cc3ccccc3)CC1)CC[S+]2[O-]` (single isomer, unassigned) [second optical isomer component (B), 4-[3-(4-benzylpiperidin-1-yl)propionyl]-7-methoxy-2,3,4,5-tetrahydro-1,4-benzothiazepine-1-oxide], in the series on anaesthetized rat, the “change in the heart rate” value is on record as “decreased”, the “change in blood pressure” value is “decreased”, the “change in left ventricular contraction function (max dP/dt)” value is reported as “reduced” and the “change in left ventricular relaxation function (min dP/dt)” value is “reduced”. In addition, the “ventricular effective refractory period (% change rate vs control value 100%)” value with anaesthetized beagle dog [2] (1 mg/kg) was “significantly extended”. For the same compound, the “extension of ventricular effective refractory period” value with anaesthetized beagle dog [2] (1 mg/kg, dose dependent) is listed as “can extend ventricular effective refractory period”. Further, the “atrial effective refractory period (% change rate vs control value 100%)” value in the series with anaesthetized beagle dog [3] is listed as “extended”.
